US8436035B2, “Organic compounds” (Novartis AG, priority 2006, dated 2013)

Key:
[1] = target: T1, aldosterone synthase (CYP11B2) (Homo sapiens, UniProt P19099); assay: in vitro aldosterone synthase inhibition, aldosterone production in Ang II-stimulated NCI-H295R cells; type: cell-based; settings: read-out: AS IC50
T1 construct: host or cells: NCI-H295R
T1 sequence (P19099 25-503): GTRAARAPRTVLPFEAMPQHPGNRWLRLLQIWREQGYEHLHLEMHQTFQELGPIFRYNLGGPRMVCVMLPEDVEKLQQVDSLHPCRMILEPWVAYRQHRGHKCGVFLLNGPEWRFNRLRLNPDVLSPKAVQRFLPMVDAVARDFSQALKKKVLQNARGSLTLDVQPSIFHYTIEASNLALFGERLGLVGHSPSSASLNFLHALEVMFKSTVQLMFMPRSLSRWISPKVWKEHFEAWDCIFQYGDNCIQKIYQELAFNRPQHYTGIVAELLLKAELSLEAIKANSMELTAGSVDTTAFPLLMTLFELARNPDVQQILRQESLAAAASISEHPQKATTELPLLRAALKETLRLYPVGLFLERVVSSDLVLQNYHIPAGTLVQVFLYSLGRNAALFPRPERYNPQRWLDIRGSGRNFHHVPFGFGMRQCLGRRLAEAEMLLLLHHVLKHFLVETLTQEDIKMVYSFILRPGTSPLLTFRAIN
Excerpt: In particular, the aldosterone synthase inhibitory activities in vitro can be determined by the following assay.
Human adrenocortical carcinoma NCI-H295R cell line is obtained from American Type Culture Collection (Manassas, Va.). Insulin/transferrin/selenium (ITS)-A supplement (100×), DMEM/F-12, antibiotic/antimycotic (100×), and fetal calf serum (FCS) are purchased from Gibco (Grand Island, N.Y.). Anti-mouse PVT scintillation proximity assay (SPA) beads and NBS 96-well plates are obtained from Amersham (Piscataway, N.J.) and Corning (Acton, Mass.), respectively. Solid black 96-well flat bottom plates were purchased from Costar (Corning, N.Y.). Aldosterone and angiotensin (Ang II) are purchased from Sigma (St. Louis, Mo.). D-[1,2,6,7-^3H(N)]aldosterone was acquired from PerkinElmer (Boston, Mass.). Nu-serum was a product of BD Biosciences (Franklin Lakes, N.J.).
For in vitro measurement of aldosterone activity, human adrenocortical carcinoma NCI-H295R cells are seeded in NBS 96-well plates at a density of 25,000 cells/well in 100 μl of a growth medium containing DMEM/F12 supplemented with 10% FCS, 2.5% Nu-serum, 1 μg ITS/ml, and 1× antibiotic/antimycotic. The medium is changed after culturing for 3 days at 37° C. under an atmosphere of 5% CO2/95% air. On the following day, cells are rinsed with 100 μl of DMEM/F12 and incubated with 100 μl of treatment medium containing 1 μM Ang II and a compound at different concentrations in quadruplicate wells at 37° C. for 24 hr. At the end of incubation, 50 μl of medium is withdrawn from each well for measurement of aldosterone production by an RIA using mouse anti-aldosterone monoclonal antibodies.
Measurement of aldosterone activity can also be performed using a 96-well plate format. Each test sample is incubated with 0.02 μCi of D-[1,2,6,7-^3H(N)]aldosterone and 0.3 μg of anti-aldosterone antibody in phosphate-buffered saline (PBS) containing 0.1% Triton X-100, 0.1% bovine serum albumin, and 12% glycerol in a total volume of 200 μl at room temperature for 1 hr. Anti-mouse PVT SPA beads (50 μl) are then added to each well and incubated overnight at room temperature prior to counting in a Microbeta plate counter. The amount of aldosterone in each sample is calculated by comparing with a standard curve generated using known quantities of the hormone.

CYP11B1 = target: T2, CYP11B1 (Homo sapiens, UniProt P15538); assay: in vitro CYP11B1 inhibition, steroid release from NCI-H295R cells; type: cell-based; settings: for inhibition at 0.1 µM: NCI-H295R, read-out: 11B1 % I @ 100 nM
T2 construct: Thus, the NCI-H295R cells have Cyp11 B1 (steroid 11 p-hydroxylase); host or cells: NCI-H295R
T2 sequence (P15538 25-503): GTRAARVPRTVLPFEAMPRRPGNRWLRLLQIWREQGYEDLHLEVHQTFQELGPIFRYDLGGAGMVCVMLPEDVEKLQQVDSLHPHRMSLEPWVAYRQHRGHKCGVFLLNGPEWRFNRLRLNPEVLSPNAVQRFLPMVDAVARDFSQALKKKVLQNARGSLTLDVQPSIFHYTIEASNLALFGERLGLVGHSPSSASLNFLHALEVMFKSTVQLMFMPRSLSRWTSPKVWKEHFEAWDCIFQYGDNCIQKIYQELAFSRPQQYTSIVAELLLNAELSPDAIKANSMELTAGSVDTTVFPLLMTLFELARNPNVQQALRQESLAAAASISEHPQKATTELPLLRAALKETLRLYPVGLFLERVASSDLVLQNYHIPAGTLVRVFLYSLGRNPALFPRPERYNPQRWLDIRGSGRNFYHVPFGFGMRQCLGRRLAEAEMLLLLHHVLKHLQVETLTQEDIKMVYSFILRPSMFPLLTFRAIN
Excerpt: The in vitro inhibitory activities for CYP11B1 can be determined by the following assay.
The cell line NCI-H295R was originally isolated from an adrenocortical carcinoma and has been characterized in the literature through the stimulable secretion of steroid hormones and the presence of the enzymes essential for steroidogenesis. Thus, the NCI-H295R cells have Cyp11 B1 (steroid 11 p-hydroxylase). The cells show the physiological property of zonally undifferentiated human foetal adrenocortical cells which, however, have the capacity to produce the steroid hormones which are formed in the three, phenotypically distinguishable zones in the adult adrenal cortex.
The NCI-H295R cells (American Type Culture Collection, ATCC, Rockville, Md., USA) are grown in Dulbeoco's Modified Eagle'Ham F-12 Medium (DME/F12), which has been I supplemented with Ulroser SF Serum (Soprachem, Cergy-Saint-Christophe, France), insulin, transferrin, selenite (I-T-S, Becton Dickinson Biosciences, Franklin lakes, NJ, USA) and antibiotics in 75 cm^2 cell culture vessels at 37° C. and in a 95% air-5% carbon dioxide atmosphere. The cells are subsequently transferred for colony formation into a 24-well incubation vessel. They are cultivated there in DME/F12 medium, which is now supplemented with 0.1% bovine serum instead of Ultroser SF for 24 hours. The experiment is initiated by cultivating the cells in DME/F12 medium which is supplemented with 0.1% bovine serum albumin and test compound, in the presence or absence of cell stimulants, for 72 hours. The test substance is added in a concentration range from 0.2 nanomolar to […]. Cell stimulants which can be used are angiotensin 11 ([…] or 100 nanomolar), potassium ions (16 millimolar), forskolin (10 micromolar) or a combination of two stimulants.
The excretion of aldosterone, cortisol, corticosterone and estradiol/estrone into the culture medium can be detected and quantified by commercially available, specific monoclonal antibodies in radioimmunoassays in accordance with the manufacturer's instructions.
Inhibition of the release of certain steroids can be used as a measure of the respective enzyme inhibition by the added test compounds. The dose-dependent inhibition of enzymic activity by a compound is calculated by means of an inhibition plot which is characterized by an IC50.
The IC50 values for active test compounds are ascertained by a […] in order to construct inhibition plots without data weighting. The inhibition plot is calculated by fting a 4-parameter logistic function to the raw data points using the least squares method. The equation of the 4-parameter logistic function is calculated as follows: Y=(d−a)/((1+(x/c)b))+a I where: a=minimum data level b=gradient I c=ICED, d=maximum data level x=inhibitor concentration.

| IC50 [1] | inhibition at 0.1 µM (CYP11B1) | Molecule | 11B1 % I @ 100 nM (CYP11B1; 100 nM) |
| --- | --- | --- | --- |
| 194 nM | 100% | CCc1cncn1C1CC(C)(C)c2ccccc21 (stereo not shown) [Compound 22, 1-(3,3-Dimethyl-indan-1-yl)-5-ethyl-1H-imidazole] |  |
| 194 nM | 93% | CC1(C)C(n2cncc2CO)c2ccccc2S1(=O)=O (stereo not shown) [Compound 24, [3-(2,2-Dimethyl-1,1-dioxo-2,3-dihydro-1H-1lambda*6*-benzo[b]thiophen-3-yl)-3H-imidazol-4-yl]-methanol] |  |
| 46 nM | 96% | COC(=O)c1cncn1C1c2ccccc2OC1(C)C (stereo not shown) [Compound 25, 3-(2,2-Dimethyl-2,3-dihydro-benzofuran-3-yl)-3H-imidazole-4-carboxylic acid methyl ester] |  |

| Molecule | IC50 [1] | inhibition at 0.1 µM (CYP11B1) | 11B1 % I @ 100 nM (CYP11B1; 100 nM) |
| --- | --- | --- | --- |
| CC(C)OC(=O)c1cncn1C1CCCCc2ccccc21 (stereo not shown) [Compound 26, 3-(6,7,8,9-Tetrahydro-5H-benzocyclohepten-5-yl)-3H-imidazole-4-carboxylic acid isopropyl ester] | 5 nM | 99% |  |
| spiro[cyclopentane-1,2′-[3′-(7′-methyl-chroman-4′-yl)-3′H-imidazole-4′-carboxylic acid methyl ester]] [Compound 17] | 175 nM |  | 100% |
